Experimental findings from patent US20250346550A1, “METHODS OF MODULATING ENDONUCLEASE G USING RESVERATROL AND ITS DERIVATIVES” (THE REGENTS OF THE UNIVERSITY OF COLORADO A BODY CORPORATE, priority 2022, published 2025) are described below.

The structures appear in SMILES notation.

For the test, the system named is cross-fertilized embryos with persistent uaDf5 paternal mitochondria (loss of lgg-1). Put plainly: embryonic lethality caused by persistent uaDf5 paternal mitochondria. The format is in vivo, C. elegans. The following applies: 100 μM, males pretreated eight hours before mating, 25° C. As to the method: FIG. 10. Trans-resveratrol reduces embryonic lethality through enhancing removal of mutant paternal mitochondria. The embryonic lethality rate was scored in cross-fertilized embryos from crosses of the indicated genotypes. Males were pretreated with either 0.5% ethanol (Mock) or […] trans-resveratrol (trans) for eight hours before mating. All males carried smIs42 to assist identification of zygotes. Data are means SEM; n>200 embryos per cross at 25° C. n.s., no significant difference; *P<0.05 using two-sided, unpaired t-test.
Several studies have shown that abnormal persistence of paternal mitochondria is detrimental to normal development and causes various deficiencies, including neurological and muscular defects, which lack treatment options.

With `Oc1ccc(/C=C/c2cc(O)cc(O)c2)cc1` [trans-resveratrol, 3,5,4′-trihydroxy-trans-stilbene], the “embryonic lethality caused by uaDf5 paternal mitochondria” value is “significantly reduced embryonic lethality”.
